Reference: ChEMBL document CHEMBL5226287, “Small organic molecules targeting the energy metabolism of Mycobacterium tuberculosis” (Eur J Med Chem, 2021)
In brackets after ≈: the same amount, converted by molar mass. Starred links: 1 amine or outer side, 2 acyl side, 3 side chain; linkers in the order of their positions; H or OH if unused. Non-standard residues stand in square brackets, D forms with d. Residues, ends and D or L forms follow the SMILES beside them. ξ: configuration not given here. *: point of attachment. X1 = CCC(=O)C[C@@H](O)C[C@@H](C)C[C@H](N[*:1])C(=O)[*:2]; Alaψ(CH2NMeCH2CH2OH) = C[C@@H](CN(C)CCO)N*; Decanoyl(2R-Me) = CCCCCCCC[C@@H](C)C(=O)*; Ile(3ξ) = CCC(C)[C@H](N)C(=O)O; ξβ3hP = O=C(O)CC1CCCN1; Aib = CC(C)(N)C(=O)O

Columns and labels:
[1] = system: Mycobacterium tuberculosis; test: Antitubercular activity against Mycobacterium tuberculosis H37Rv infected in THP-1 cells assessed as intracellular bacterial growth measured over 6 days; assay type: functional; conditions: 144 h, time 6 day
[2] = system: Mycobacterium tuberculosis; test: Antimycobacterial activity against Mycobacterium tuberculosis H37Rv after 14 days; assay type: functional; conditions: 336 h, time 14 day
[3] = Inhibition of Mycobacterium tuberculosis TFP incubated for 60 mins by UPLC based assay
[4] = system: Mycobacterium tuberculosis; test: Antitubercular activity against Mycobacterium tuberculosis H37Rv assessed as growth inhibition in presence of ATP; assay type: functional
HepG2 = test: Cytotoxicity against human HepG2 cells assessed as cell viability at 100 uM by MTT assay; assay type: functional; conditions: read-out: TD50 (the source's name)
[5] = system: Mycobacterium tuberculosis; test: Antibacterial activity against Mycobacterium tuberculosis H37Rv after 7 days by resazurin dye-based assay; assay type: functional; conditions: time 7 day
[6] = system: Mycobacterium tuberculosis; test: Antibacterial activity against Mycobacterium tuberculosis H37Rv-MA ATCC 27294 assessed reduction in bacterial growth by microplate alamar blue assay; assay type: functional
[7] = system: Mycobacterium tuberculosis; test: Antibacterial activity against Mycobacterium tuberculosis H37Rv assessed as reduction bacterial growth after 14 days by micro broth dilution method; assay type: functional; conditions: 336 h, time 14 day
[8] = Inhibition of Mycobacterium smegmatis ptpB expressed in Escherichia coli […] cells in the presence of ATP cells using 6,8-difluoromethylumbelliferyl phosphate as substrate incubated for 30 mins by fluorescence based assay; set-up: species or system Mycolicibacterium smegmatis
[9] = system: Mycobacterium tuberculosis; test: Antibacterial activity against Mycobacterium tuberculosis H37Rv in macrophages by CLSI broth microdilution method; assay type: functional
[10] = system: Mycobacterium tuberculosis; test: Antibacterial activity against Mycobacterium tuberculosis H37Rv ATCC 25618 assessed as complete inhibition of bacterial growth measured after 5 days by spectrophotometry method; assay type: functional; conditions: H37Rv ATCC 25618, 120 h, time 5 day
[11] = Lipophilicity, log P of the compound at pH 6.5; assay type: physicochemical; conditions: buffer
[12] = system: Mycobacterium tuberculosis; test: Antitubercular activity against Mycobacterium tuberculosis H37Rv incubated for 14 days in GAST/FE medium by Alamar blue assay; assay type: functional; conditions: 336 h, time 14 day
[13] = system: Mycobacterium tuberculosis; test: Antibacterial activity against Mycobacterium tuberculosis H37Rv ATCC 27294 assessed as reduction in microbial growth in GAST media; assay type: functional
[14] = system: Mycobacterium tuberculosis; test: Antibacterial activity against ATP synthesis in Mycobacterium tuberculosis H37Rv derived membrane vesicle incubated for 60 mins by luciferase based assay; assay type: functional; conditions: 1 h
[15] = system: Mycobacterium tuberculosis; test: Inhibition of ATP synthesis in Mycobacterium tuberculosis H37Rv derived membrane vesicle incubated for 60 mins by luciferase based assay; assay type: functional; conditions: 1 h
[16] = system: Mycobacterium tuberculosis; test: Antibacterial activity against Mycobacterium tuberculosis H37Rv-LP ATCC 25618 assessed reduction in bacterial growth by microplate alamar blue assay; assay type: functional
[17] = system: Mycolicibacterium smegmatis; test: Antibacterial activity against Mycobacterium smegmatis assessed as inhibition of bacterial growth in the presence of NADH II dehydrogenase; assay type: functional, organism-based
[18] = system: Mycobacterium tuberculosis; test: Antibacterial activity against Mycobacterium tuberculosis H37Rv ATCC assessed as reduction in bacterial growth by microdilution method; assay type: functional
[19] = Kinetic aqueous solubility of the compound in 2.5% DMSO/PBS at pH 7.4 incubated for 2 hrs by nephelometry analysis; assay type: physicochemical; conditions: PBS with 2.5% DMSO, read-out: Kinetic_solubility
[20] = system: Mycobacterium tuberculosis; test: Antimycobacterial activity against Mycobacterium tuberculosis H37Rv; assay type: functional, organism-based
[21] = system: Mycobacterium tuberculosis; test: Antibacterial activity against Mycobacterium tuberculosis H37Rv assessed as inhibition of bacterial growth by microdilution method; assay type: functional
[22] = system: Mycobacterium tuberculosis; test: Antibacterial activity against Mycobacterium tuberculosis H37Rv assessed as reduction in bacterial growth in the presence of resazurin reduction under microplate alamarBlue assay; assay type: functional
[23] = system: Mycobacterium tuberculosis; test: Antibacterial activity against Mycobacterium tuberculosis cytochrome bd oxidase assessed as reduction in bacterial growth in the presence of resazurin reduction under by microdilution method; assay type: functional
[24] = system: Mycobacterium tuberculosis; test: Antibacterial activity against Mycobacterium tuberculosis cytochrome bd oxidase assessed as reduction in bacterial growth in the presence of resazurin reduction under microplate alamarBlue assay; assay type: functional
[25] = system: Mycobacterium tuberculosis; test: Antitubercular activity against Mycobacterium tuberculosis H37Rv assessed as inhibition of bacterial growth by fluorescence based analysis; assay type: functional
[26] = Inhibition of Mycobacterium tuberculosis H37Rv ATP synthase
[27] = system: Mycobacterium tuberculosis; test: Antibacterial activity against Mycobacterium tuberculosis H37Rv in the presence of ATP synthase; assay type: functional
[28] = system: Mycobacterium tuberculosis; test: Antibacterial activity against Mycobacterium tuberculosis H37Rv assessed as greater inhibition of microbial growth in presence of depletion of ATP levels by microplate alamar blue assay; assay type: functional, organism-based
[29] = system: Mycobacterium tuberculosis; test: Antibacterial activity against Mycobacterium tuberculosis assessed as inhibition of bacterial growth in the presence of NADH II dehydrogenase; assay type: functional, organism-based

With `O=C(/C=C/c1cccs1)N1CCN(Cc2ccc3c(c2)OCO3)CC1` the MIC [1] was 0.4 µM (≈ 0.143 µg/mL), the MIC [2] was 0.05 µM (≈ 0.0178 µg/mL) and the IC50 [3] was 0.1 µg/mL (≈ 0.281 µM).

In the case of `O=C(CNC1CCCC1)N(c1ccccc1)c1ccccc1`, the MIC [4] is reported as 6.25 µg/mL.

Work on `O=C(CNC1CCCCC1)N(c1ccccc1)c1ccccc1` yielded an MIC [4] of 5.23 µg/mL.

Compound `O=C(/C=C/c1cscn1)N1CCN(Cc2ccc3c(c2)OCO3)CC1` has an MIC [1] of 0.6 µM (≈ 0.214 µg/mL) and an MIC [2] of 0.1 µM (≈ 0.0357 µg/mL).

For `CCNc1nc(SCC)nc2ccccc12`, the CC50 (HepG2) was over 5 µg/mL and the TD50 [5] was 0.09 µg/mL.

`CCc1nc2ccccc2n1CCCCSc1nc(-c2ccccc2)cs1` showed an MIC50 [6] of 5.3 µM (≈ 2.09 µg/mL).

`CCSc1nc(NC)c2ccc(F)c(F)c2n1` gave a TD50 [5] of 0.02 µg/mL.

With `COc1ccc(/C=C2/S/C(=N/N=C/c3ccccc3O)NC2=O)cc1` the MIC90 [7] was 0.5 µg/mL (≈ 1.41 µM), the IC50 [8] was 0.312 µM and the MIC90 [9] was 4 µg/mL (≈ 11.3 µM).

In the case of `CCc1nc2ccccc2n1CCCCNc1ccccc1`, the MIC99 [10] is reported as 0.47 µM (≈ 0.138 µg/mL).

With `CCCCCCCC[C@@H](C)C(=O)N1CCCC1CC(=O)N[C@@H](C[C@H](C)C[C@H](O)CC(=O)CC)C(=O)NC(C)(C)C(=O)NC(C)(C)C(=O)N[C@H](C(=O)N[C@H](C(=O)NC(C)(C)C(=O)NC(C)(C)C(=O)N[C@@H](C)CN(C)CCO)C(C)C)C(C)CC` (stereo partly drawn) ({Decanoyl(2R-Me)}-[ξβ3hP][X1][Aib][Aib][Ile(3ξ)]V[Aib][Aib]-{Alaψ(CH2NMeCH2CH2OH)}) the logD [11] was 4.37.

Work on `CCc1ccn2c(C(=O)NCc3ccc(C)cc3)c(C)nc2c1` yielded an MIC [12] of 0.004 µM (≈ 0.00123 µg/mL).

With `O=C(CSc1nc2ccccc2c(=O)[nH]1)NC1CCC(F)(F)CC1` the MIC [13] was 0.5 µM.

Compound `Nc1c2c(nc3sc4c(c13)CCCCC4)CCCC2` has an MIC50 [14] of 1.7 µM (≈ 0.463 µg/mL) and an IC50 [15] of 3.4 µM.

For `CCc1nc2ccc(C)cc2n1CCCCOc1ccccc1`, the MIC50 [16] was 0.34 µM (≈ 0.105 µg/mL).

Work on `O=C(CSc1nc2cccc(F)c2c(=O)[nH]1)NC1CCC(F)(F)CC1` yielded an IC50 [17] of 0.0107 µM.

For `CCc1nc2ccc(C)cc2n1CCCNc1ccc(C)cc1`, the MIC99 [10] was 0.061 µM (≈ 0.0188 µg/mL).

For `O=C(CSc1nc2ccccc2c(=O)[nH]1)NCC1CCC(F)(F)CC1`, the MIC [13] was 0.8 µM, the IC90 [18] was 5.1 µM and the solubility kinetic at 2 h [19] was 250 µM (≈ 91.9 µg/mL).

`Cc1ccn2c(C(=O)NCc3cccc(OC(C)C)c3)c(C)nc2c1` gave an IC50 [20] of 0.39 µM.

In the case of `COc1ccc(CNC(=O)c2c(C)nc3ccc(Br)cn23)cc1`, the MIC [21] is reported as over 50 µM, the MIC [22] is reported as 0.15 µM and the MIC [23] is reported as under 0.024 µM. For the same compound, the MIC [24] was under 0.024 µM.

`Cc1ccc2nc(C)c(C(=O)NCc3ccc(Cl)nc3)n2c1` showed an MIC [25] of 5 µM (≈ 1.57 µg/mL).

Compound `CN(C)CCN1CCN(c2ccc(-c3cc4cc(Br)ccc4nc3OCc3ccc4ccccc4c3)cc2)CC1` has an IC50 [26] of 38.8 µM and an MIC [27] of 0.44 µg/mL.

In the case of `CCCCNc1nc(CC)nc2sc(C)cc12`, the IC50 [28] is reported as 0.84 µM.

`C=CCN1NC(C(=O)N2CCSCC2)C2CC(NCc3ccc(Cl)s3)CCC21` (stereo not drawn) gave an IC50 [29] of 0.0647 µM.

`CN(C)Cc1ccc(-c2cc3cc(Br)ccc3nc2OCc2ccncc2)cc1` showed an IC50 [26] of 20.3 µM and an MIC [27] of 0.43 µg/mL.

With `O=C(CSc1nc2ccccc2c(=O)[nH]1)NC1CCCCC1` the MIC [13] was 0.3 µM and the solubility kinetic at 2 h [19] was 83 µM (≈ 26.3 µg/mL).

Work on `Cc1ccc(-c2nc3ccc(C)cn3c2CC(=O)N(C)C)cc1` [ZOLPIDEM] yielded an MIC [12] of 10 µM (≈ 3.07 µg/mL).

`Cc1ccn2c(C(=O)NCc3ccccc3)c(C)nc2c1` showed an IC50 [20] of 0.15 µM.

With `Cc1ccc2nc(C)c(C(=O)NCc3ccc(C(F)(F)F)cc3)n2c1` the MIC [25] was 0.03 µM (≈ 0.0104 µg/mL).
